Reference: patent US20250034154A1, “SALTS AND SOLID FORMS OF A COMPOUND THAT MODULATES IRAK4” (Gilead Sciences, Inc., priority 2023, published 2025)

Assay: Dynamic vapor sorption (DVS) hygroscopicity
Type: physicochemical
Procedure: Hygroscopicity was studied using dynamic vapor sorption (DVS, TA Q5000 SA, TA Instruments, New Castle, DE or DVS, DVS Intrinsic, Surface Measurement Systems, London, UK). A sample (2-20 mg) was placed in an aluminum DVS pan and loaded on the sample side of the twin pan balance. The water sorption and desorption were studied as a function of relative humidity (RH) at 25° C. In 10% RH increments, the relative humidity was increased from 5% RH to 95% RH and then decreased back to 5%. […] Data analysis was performed using Universal Analysis 2000 Version 4.7A (TA Instruments, New Castle, DE) for TA DVS runs and Microsoft Excel for SMS DVS runs.

C[C@H](C#N)Nc1cc(-c2ccc3cc(C#N)cnn23)ncc1C(=O)NC[C@@H](F)C(C)(C)O [Form IV, 4-(((R)-1-cyanoethyl)amino)-6-(3-cyanopyrrolo[1,2-b]pyridazin-7-yl)-N—((R)-2-fluoro-3-hydroxy-3-methylbutyl)nicotinamide]
water absorbed (DVS analysis) (25° C. and 95% RH): less than 0.1 wt % | hygroscopicity (DVS analysis) (25° C., up to 95% RH): non-hygroscopic | form change by XRPD analysis of the sample post DVS analysis (post DVS): no form change
